Source: patent US20080019949A1, “DIFFERENTIATION OF STEM CELLS FROM UMBILICAL CORD MATRIX INTO […] CELLS” (UNIVERSITY OF KANSAS, priority 2006, published 2008)

What was measured:
[1] = system: differentiated and undifferentiated HUMCs; assay: Cellular uptake of Indocyanine Green (ICG); assay type: cell-based, human; conditions: 1 mg/mL ICG concentration
Method: Cellular uptake of Indocyanine Green (ICG.): ICG was dissolved to an initial concentration of 5 mg/mL in solvent. The solution was then diluted to 1 mg/mL in maturation media and added to the culture dish and incubated at 37° C. in a humidified incubator at 5% CO2 for 10-15 minutes. The cells were washed thoroughly with sterile PBS and then visualized under a light microscope. After examination, the PBS was then removed and maturation media was added and the cells incubated at 37° C. in a humidified incubator at 5% CO2 for ˜4-6 hours to confirm elimination of ICG.

[2] = system: differentiated HUCM cells (hepatocyte-like cells)
Method: RNA isolation and Reverse Transcription Polymerase Chain Reaction (RT-PCR.): RNA was isolated from cells on RNeasy Quick spin columns (Qiagen, Valencia, Calif.) and converted to cDNA using random hexamers and SuperScript II reverse transcriptase (Invitrogen, Carlsbad, Calif.). PCR was performed using a BioRad I-Cycler. Products were resolved by 2% agarose gel electrophoresis and visualized by ethidium bromide staining. Expression of numerous hepatocyte-specific genes was analyzed, including CK18, cytokeratin 18; HNF3-β, hepatocyte nuclear factor 3β; CK19, cytokeratin 19; AFP, alpha fetoprotein; Alb, albumin; and CYP2B6, cytochrome P450 2 family.
Cytochromes were induced by treatment with; Rifamicin (RIF), 20 um; Penobarbital (PB), 2 mM; forskolin, 50 uM; 8-Bromo-cAMP, 1 mM (Tocris, Ellisville, Mo.); and vehicle controls for 24-hour period. mRNA was then harvested and then analyzed by RT-PCR.

Structure (SMILES)	adverse effects on cells [1]	CYP3A4 expression (RT-PCR) [2]	PXR expression (RT-PCR) [2]	expression of inducible markers (CAR, PXR, PGC-1, PEPCK, PPAR-γ, CYP3A4, HNF4α) [2]
CC1(C)C(/C=C/C=C/C=C/C=C2\N(CCCCS(=O)(=O)O)c3ccc4ccccc4c3C2(C)C)=[N+](CCCCS(=O)(=O)[O-])c2ccc3ccccc3c21 [ICG, Indocyanine Green]	no adverse effects were observed	–	–	–
CCC1(c2ccccc2)C(=O)NC(=O)NC1=O [PB, phenobarbital]	–	induced	induced	showed a number of hepatocyte-inducible genes or an increase in expression levels
C=C[C@@]1(C)CC(=O)[C@]2(O)[C@@]3(C)[C@@H](O)CCC(C)(C)[C@@H]3[C@H](O)[C@H](OC(C)=O)[C@@]2(C)O1 [forskolin]	–	–	–	showed a number of hepatocyte-inducible genes or an increase in expression levels
